Source: ChEMBL document CHEMBL2417537, “Synthesis and antifungal activity of terpenyl-1,4-naphthoquinone and 1,4-anthracenedione derivatives” (Eur J Med Chem, 2013)
Values after ≈ are worked out from the molar mass of the structure shown. Active and inactive are the calls of the source. The rule behind the calls is not given here.

Assays:
Trichophyton rubrum = experiment: Antifungal activity against Trichophyton rubrum ATCC 28188 after 6 days; format: functional; details: ATCC 28188, 144 h
[1] = system: Trichophyton mentagrophytes; experiment: Antifungal activity against Trichophyton mentagrophytes ATCC 24198 after 6 days; format: functional; details: ATCC 24198, 144 h
Aspergillus terreus = experiment: Antifungal activity against Aspergillus terreus CDC 317 after 48 hrs; format: functional; details: CDC 317, 48 h
Pichia kudriavzevii = experiment: Antifungal activity against Candida krusei ATCC 6258 after 24 hrs; format: functional; details: ATCC 6258, 24 h
Fusarium oxysporum = experiment: Antifungal activity against Fusarium oxysporum ATCC 48112 after 48 hrs; format: functional; details: ATCC 48112, 48 h
Candida parapsilosis [2] = experiment: Antifungal activity against Candida parapsilosis ATCC 22019 after 24 hrs; format: functional; details: ATCC 22019, 24 h
Candida albicans [3] = experiment: Antifungal activity against Candida albicans ATCC 90028 after 24 hrs; format: functional; details: ATCC 90028, 24 h
Candida tropicalis [4] = experiment: Antifungal activity against Candida tropicalis CECT 11901 after 24 hrs; details: CECT 11901, 24 h
Clavispora lusitaniae = experiment: Antifungal activity against Candida lusitaniae ATCC 200951 after 24 hrs; format: functional; details: ATCC 200951, 24 h
Aspergillus niger = experiment: Antifungal activity against Aspergillus niger ATCC 16404 after 48 hrs; format: functional; details: ATCC 16404, 48 h
Candida tropicalis [5] = experiment: Antifungal activity against Candida tropicalis ATCC 200956 after 24 hrs; format: functional; details: ATCC 200956, 24 h
Aspergillus fumigatus = experiment: Antifungal activity against Aspergillus fumigatus ATCC 204305 after 48 hrs; format: functional; details: ATCC 204305, 48 h
Candida albicans [6] = experiment: Antifungal activity against Candida albicans ATCC 10231 after 24 hrs; format: functional; details: ATCC 10231, 24 h
Aspergillus flavus = experiment: Antifungal activity against Aspergillus flavus ATCC 204304 after 48 hrs; format: functional; details: ATCC 204304, 48 h
[7] = Selectivity index, ratio of IC50 for african green monkey Vero cells to IC50 for Candida krusei ATCC 6258; format: toxicity, cell-based; details: read-out: Ratio IC50
Vero = experiment: Cytotoxicity against african green monkey Vero cells after 48 hrs by MTT assay; format: cell-based; details: Chlorocebus sabaeus
[8] = Selectivity index, ratio of IC50 for african green monkey Vero cells to IC50 for Aspergillus fumigatus ATCC 204305; format: toxicity, cell-based; details: read-out: Ratio IC50
[9] = Selectivity index, ratio of IC50 for african green monkey Vero cells to IC50 for Trichophyton rubrum ATCC 28188; format: toxicity, cell-based; details: read-out: Ratio IC50
[10] = Selectivity index, ratio of IC50 for african green monkey Vero cells to IC50 for Candida lusitaniae ATCC 200951; format: toxicity, cell-based; details: read-out: Ratio IC50
[11] = Selectivity index, ratio of IC50 for african green monkey Vero cells to IC50 for Trichophyton mentagrophytes ATCC 24198; format: toxicity, cell-based; details: read-out: Ratio IC50
Candida parapsilosis [12] = experiment: Antifungal activity against Candida parapsilosis ATCC 22019 at > MIC up to 24 hrs by time kill study; format: functional, organism-based
Candida parapsilosis [13] = experiment: Antifungal activity against Candida parapsilosis ATCC 22019 at 0.5 MIC up to 24 hrs by time kill study; format: functional, organism-based

Row | Structure (SMILES) | MIC90 (Trichophyton rubrum) [µg/mL] | MIC90 [1] [µg/mL] | MIC90 (Aspergillus terreus) [µg/mL] | MIC90 (Pichia kudriavzevii) [µg/mL] | MIC90 (Fusarium oxysporum) [µg/mL] | MIC90 (Candida parapsilosis [2]) [µg/mL] | MIC90 (Candida albicans [3]) [µg/mL] | MIC90 (Candida tropicalis [4]) [µg/mL] | MIC90 (Clavispora lusitaniae) [µg/mL] | MIC90 (Aspergillus niger) [µg/mL] | MIC90 (Candida tropicalis [5]) [µg/mL] | MIC90 (Aspergillus fumigatus) [µg/mL] | MIC90 (Candida albicans [6]) [µg/mL] | MIC90 (Aspergillus flavus) [µg/mL] | IC50 (Vero) [µg/mL] | other results
1 | COc1ccc(SC2=CC(=O)c3ccc(CCCC(C)C)cc3C2=O)cc1 | > 32 | > 32 | > 32 | > 32 | > 32 | > 32 | > 32 | > 32 | > 32 | > 32 | > 32 | > 32 | > 32 | > 32 | – | –
2 | CC(C)=CCCc1ccc2c(c1)C(=O)C(Cl)=CC2=O | 4 (≈ 14.6 µM) | 6.4 (≈ 23.3 µM) | > 32 | 2.4 (≈ 8.74 µM) | 32 (≈ 116 µM) | 4 (≈ 14.6 µM) | > 32 | > 32 | 3.2 (≈ 11.6 µM) | > 32 | 11.3 (≈ 41.1 µM) | 11.3 (≈ 41.1 µM) | > 32 | > 32 | 26.1 (≈ 95 µM) | selectivity ratio [7]: 10.9; selectivity ratio [8]: 1.4; selectivity ratio [9]: 6.5
3 | COc1ccc(NC2=C(Cl)C(=O)c3cc(CCCC(C)C)ccc3C2=O)cc1 | 12.7 (≈ 31.9 µM) | 5 (≈ 12.6 µM) | > 32 | > 32 | > 32 | > 32 | > 32 | > 32 | 16 (≈ 40.2 µM) | > 32 | 32 (≈ 80.4 µM) | > 32 | > 32 | > 32 | 35.6 (≈ 89.5 µM) | selectivity ratio [10]: 2.2; selectivity ratio [11]: 7.1
4 | COc1cc(NC2=C(Cl)C(=O)c3cc4c(cc3C2=O)C(C)(C)CCC4)cc(OC)c1OC | > 32 | > 32 | > 32 | > 32 | > 32 | > 32 | > 32 | > 32 | > 32 | > 32 | > 32 | > 32 | > 32 | > 32 | ≤ 25 | –
5 | Cc1ccc2[nH]c3c(c2c1)C(=O)c1ccc(CCCC(C)C)cc1C3=O | > 32 | > 32 | > 32 | > 32 | > 32 | > 32 | > 32 | > 32 | > 32 | > 32 | > 32 | > 32 | > 32 | > 32 | 55.2 (≈ 160 µM) | –
6 | CC(C)CCCc1ccc2c(c1)C(=O)C(Cl)=C(Cl)C2=O | 4 (≈ 12.9 µM) | 4 (≈ 12.9 µM) | > 32 | > 32 | > 32 | > 32 | > 32 | > 32 | 20.2 (≈ 64.9 µM) | > 32 | > 32 | 8 (≈ 25.7 µM) | > 32 | > 32 | ≥ 200 | selectivity ratio [10]: > 9.9; selectivity ratio [11]: > 50; selectivity ratio [8]: > 25; selectivity ratio [9]: > 50
7 | CC1(C)CCCc2cc3c(cc21)C(=O)C=C(Cl)C3=O | 5 (≈ 18.2 µM) | 3.2 (≈ 11.6 µM) | > 32 | 2 (≈ 7.28 µM) | 16 (≈ 58.2 µM) | 4 (≈ 14.6 µM) | 16 (≈ 58.2 µM) | 12.7 (≈ 46.2 µM) | 5 (≈ 18.2 µM) | > 32 | 8 (≈ 29.1 µM) | 16 (≈ 58.2 µM) | 20.2 (≈ 73.5 µM) | > 32 | 109 (≈ 397 µM) | selectivity ratio [7]: > 12.5; Activity (Candida parapsilosis [12]): Active; Activity (Candida parapsilosis [13]): inactive; selectivity ratio [11]: > 7.8; selectivity ratio [8]: > 1.6
8 | CCNC1=CC(=O)c2cc3c(cc2C1=O)C(C)(C)CCC3 | 3.2 (≈ 11.3 µM) | 5 (≈ 17.6 µM) | > 32 | > 32 | > 32 | > 32 | > 32 | > 32 | > 32 | > 32 | > 32 | > 32 | > 32 | > 32 | 35.6 (≈ 126 µM) | selectivity ratio [9]: 11.1
9 | CCC(C)n1ncn(-c2ccc(N3CCN(c4ccc(OCC5COC(Cn6cncn6)(c6ccc(Cl)cc6Cl)O5)cc4)CC3)cc2)c1=O (stereo not given) [ITRACONAZOLE] | – | – | – | 0.5 (≈ 0.709 µM) | – | 0.25 (≈ 0.354 µM) | – | – | – | – | – | 0.2 (≈ 0.283 µM) | – | 0.1 (≈ 0.142 µM) | > 50 | selectivity ratio [7]: > 100; Activity (Candida parapsilosis [12]): Active
10 | CC(=O)NC1=C(Cl)C(=O)c2cc3c(cc2C1=O)CCCC3(C)C | 5 (≈ 15.1 µM) | 3.2 (≈ 9.64 µM) | > 32 | 2.8 (≈ 8.44 µM) | 32 (≈ 96.4 µM) | 8 (≈ 24.1 µM) | 8 (≈ 24.1 µM) | 6.4 (≈ 19.3 µM) | 2.2 (≈ 6.63 µM) | > 32 | 4 (≈ 12.1 µM) | 22.6 (≈ 68.1 µM) | 4 (≈ 12.1 µM) | > 32 | 22.3 (≈ 67.2 µM) | selectivity ratio [10]: 10.1; selectivity ratio [11]: 7.1; selectivity ratio [8]: 0.9
11 | CC(C)CCCc1ccc2c(c1)C(=O)C(Br)=C(Br)C2=O | 32 (≈ 80 µM) | > 32 | > 32 | > 32 | > 32 | > 32 | > 32 | > 32 | > 32 | > 32 | > 32 | > 32 | > 32 | 32 (≈ 80 µM) | ≤ 25 | –
12 | COc1ccc(NC2=C(Br)C(=O)c3cc(CCCC(C)C)ccc3C2=O)cc1 | > 32 | > 32 | > 32 | > 32 | > 32 | > 32 | > 32 | > 32 | > 32 | > 32 | > 32 | > 32 | > 32 | > 32 | 58.5 (≈ 132 µM) | –
13 | Cc1cc(C)c2c3c(oc2c1)C(=O)c1cc(CCCC(C)C)ccc1C3=O | > 32 | > 32 | > 32 | > 32 | > 32 | > 32 | > 32 | > 32 | > 32 | > 32 | > 32 | > 32 | > 32 | > 32 | 35.4 (≈ 98.2 µM) | –
14 | CC1(C)CCCc2cc3c(cc21)C(=O)C=CC3=O | 4 (≈ 16.6 µM) | 1.3 (≈ 5.41 µM) | > 32 | 4 (≈ 16.6 µM) | > 32 | 4.8 (≈ 20 µM) | 22.6 (≈ 94 µM) | 12.7 (≈ 52.9 µM) | 5 (≈ 20.8 µM) | > 32 | 5 (≈ 20.8 µM) | > 32 | 18 (≈ 74.9 µM) | > 32 | 8.6 (≈ 35.8 µM) | selectivity ratio [7]: 2.2; selectivity ratio [11]: 6.6
15 | CN(C/C=C/C#CC(C)(C)C)Cc1cccc2ccccc12 [TERBINAFINE] | 0.08 (≈ 0.275 µM) | 0.03 (≈ 0.103 µM) | – | – | – | – | – | – | – | – | – | – | – | – | 30.9 (≈ 106 µM) | selectivity ratio [9]: 386
16 | CC(C)=CCCc1ccc2c(c1)C(=O)C(Cl)=C(NCc1ccccc1)C2=O | 22.6 (≈ 59.5 µM) | > 32 | > 32 | > 32 | > 32 | > 32 | > 32 | > 32 | > 32 | > 32 | > 32 | > 32 | > 32 | > 32 | 55.9 (≈ 147 µM) | –
17 | CC(C)=CCCc1ccc2c(c1)C(=O)C=CC2=O | > 32 | > 32 | > 32 | > 32 | > 32 | > 32 | > 32 | > 32 | > 32 | > 32 | > 32 | > 32 | > 32 | > 32 | 109 (≈ 454 µM) | –
18 | Cc1c2c(nc3ccccc13)C(=O)c1cc(CCCC(C)C)ccc1C2=O | > 32 | > 32 | > 32 | > 32 | > 32 | > 32 | > 32 | > 32 | > 32 | > 32 | > 32 | > 32 | > 32 | > 32 | 115 (≈ 322 µM) | –
19 | CCOC1=C(OCC)C(=O)c2cc3c(cc2C1=O)CCCC3(C)C | > 32 | > 32 | > 32 | > 32 | > 32 | > 32 | > 32 | > 32 | > 32 | > 32 | > 32 | > 32 | > 32 | > 32 | ≤ 25 | –
